Like-named read-outs stand apart in the source and are kept apart here.
How the values were obtained:
Type in all cases: in vivo
[1] = test system: Green Peach Aphid (Myzus persicae, MYZUPE); experiment: Bioassays on Green Peach Aphid (GPA), foliar spray on cabbage seedlings; conditions: 72 h
Description: Certain molecules disclosed in this document were tested against GPA using procedures described in the following example. In the reporting of the results, the “GPA & YFM Rating Table” was used (See Table Section).
Cabbage seedlings grown in 3-inch pots, with 2-3 small (3-5 cm) true leaves, were used as test substrate. The seedlings were infested with 20-50 GPA (wingless adult and nymph stages) one day prior to chemical application. Four pots with individual seedlings were used for each treatment. Test molecules (2 mg) were dissolved in 2 mL of acetone/methanol (1:1) solvent, forming stock solutions of 1000 ppm test molecule. The stock solutions were diluted 5× with 0.025% Tween 20 in water to obtain the solution at 200 ppm test molecule. A hand-held aspirator-type sprayer was used for spraying a solution to both sides of […] leaves until runoff. Reference plants (solvent check) were sprayed with the diluent only containing 20% by volume of acetone/methanol (1:1) solvent. Treated plants were held in a holding room for three days at approximately 25° C. and ambient relative humidity (RH) prior to grading. Evaluation was conducted by counting the number of live aphids per plant under a microscope. Percent control was measured using Abbott's correction formula (W. S. Abbott, “A Method of Computing the Effectiveness of an Insecticide” J. Econ. Entomol. 18 (1925), pp. 265-267) as follows. Corrected % Control=100*(X−Y)/X where X=No. of live aphids on solvent check plants and Y=No. of live aphids on treated plants. The results are indicated in the table entitled “Table ABC: Biological Results” (See Table Section).

[2] = test system: Cabbage Looper (Trichoplusia ni, TRIPNI); experiment: Bioassays on Cabbage Looper (CL), 128-well diet tray assay; conditions: Trichoplusia ni
In short: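 Diet tray, 2nd instar, 1–5 larvae/well; 50 μg/cm^2 compound surface-applied (acetone:water 90:10), dried; 8 wells/treatment; 25° C, 14:10 L:D, 5–7 d; % mortality, mean of 8 wells.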

[3] = test system: Beet Armyworm (Spodoptera exigua, LAPHEG); experiment: Bioassays on Beet Armyworm (BAW), 128-well diet tray assay; conditions: Spodoptera exigua
In short: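 Second-instar larvae, one to five per well, were placed on artificial diet surface-treated with 50 μg/cm^2 compound in 90:10 acetone-water, eight wells per treatment. Trays were held 5–7 days at 25 °C, 14:10 light-dark. Percent mortality per well was averaged over eight wells.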

[4] = test system: Yellow Fever Mosquito (Aedes aegypti, AEDSAE); conditions: for YFM rating: Yellow Fever Mosquito, Table ABC / ABC-DP rating
In short: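 Larvae ~1 day old, in liver powder/water; compound from 4000 ppm DMSO stock diluted with water/acetone (90:10); 6 reps; lidded, RT, 3 d; mortality scored per well, rated.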

[5] = Table ABC: Biological Results, species GPA, read-out: GPA
[6] = Table ABC: Biological Results, species CL, read-out: CL
[7] = Table ABC: Biological Results, species BAW, read-out: BAW
[8] = Cabbage Looper, Table ABC / ABC-DP rating, read-out: CL rating
[9] = Beet Armyworm, Table ABC / ABC-DP rating, read-out: BAW rating
[10] = Green Peach Aphid, rating class, read-out: GPA
[11] = Cabbage Looper, rating class, read-out: CL
[12] = Beet Armyworm, rating class, read-out: BAW

Cc1c(Cl)cc(NC(=O)[C@H]2[C@H](c3ccc(F)c(Cl)c3)C2(Cl)Cl)cc1C(=O)Nc1ccc(F)cc1F (relative stereo) [F1190, trans-3-Chloro-5-(2,2-dichloro-3-(3-chloro-4-fluorophenyl)cyclopropane-1-carboxamido)-N-(2,4-difluorophenyl)-2-methylbenzamide]
pest or weed control at 200 µg/mL [1, 5]: 80 to 100% | pest or weed control at 50 µg/cm2 [2, 6]: 50 to 100% | pest or weed control at 50 µg/cm2 [3, 7]: 50 to 100%

O=C(NNC(=O)c1cc(NC(=O)[C@H]2[C@H](c3cc(Cl)cc(Cl)c3)C2(Cl)Cl)ccc1Cl)Nc1ccccc1 (relative stereo) [F2537, trans-2-(2-Chloro-5-(2,2-dichloro-3-(3,5-dichlorophenyl)cyclopropane-1-carboxamido)benzoyl)-N-phenylhydrazine-1-carboxamide]
pest or weed control at 200 µg/mL ([1]; Green Peach Aphid, Table ABC / ABC-DP rating, read-out: GPA rating): 80 to 100% | pest or weed control at 50 µg/cm2 [2, 8]: 50 to 100% | pest or weed control at 50 µg/cm2 [3, 9]: 50 to 100%

O=C(Nc1cc(NC(=O)C(Cl)Cl)c(F)cc1F)c1cc(NC(=O)[C@H]2[C@H](c3ccc(Cl)c(Cl)c3)C2(Cl)Cl)ccc1Cl [F1244, 2-Chloro-5-((1R,3R)-2,2-dichloro-3-(3,4-dichlorophenyl)cyclopropane-1-carboxamido)-N-(5-(2,2-dichloroacetamido)-2,4-difluorophenyl)benzamide]
pest or weed control at 200 µg/mL [1, 5]: 0 to 80% | pest or weed control at 50 µg/cm2 [2, 6]: 50 to 100% | pest or weed control at 50 µg/cm2 [3, 7]: 50 to 100%

Nc1c(F)ccc(NC(=O)c2cc(NC(=O)[C@H]3[C@H](c4ccc(F)c(Cl)c4)C3(Cl)Cl)cc(F)c2Cl)c1F [F1255, N-(3-amino-2,4-difluorophenyl)-2-chloro-5-((1R,3R)-2,2-dichloro-3-(3-chloro-4-fluorophenyl)cyclopropane-1-carboxamido)-3-fluorobenzamide]
pest or weed control at 200 µg/mL [1, 5]: 80 to 100% | pest or weed control at 50 µg/cm2 [2, 6]: 50 to 100% | pest or weed control at 50 µg/cm2 [3, 7]: 50 to 100%

O=C(Nc1ccc(F)c(NC(=O)C(F)F)c1F)c1cc(NC(=O)[C@H]2[C@H](c3ccc(F)c(Cl)c3)C2(Cl)Cl)cc(F)c1Cl [F1256, 2-Chloro-5-((1R,3R)-2,2-dichloro-3-(3-chloro-4-fluorophenyl)cyclopropane-1-carboxamido)-N-(3-(2,2-difluoroacetamido)-2,4-difluorophenyl)-3-fluorobenzamide]
pest or weed control at 200 µg/mL [1, 5]: 80 to 100% | pest or weed control at 50 µg/cm2 [2, 6]: 50 to 100% | pest or weed control at 50 µg/cm2 [3, 7]: 50 to 100%

O=C(Nc1c(F)cc(NC(=O)C(F)(F)F)cc1F)c1cc(NC(=O)[C@H]2[C@H](c3ccc(Cl)c(Cl)c3)C2(Cl)Cl)ccc1Cl [F1261, 2-Chloro-5-((1R,3R)-2,2-dichloro-3-(3,4-dichlorophenyl)cyclopropane-1-carboxamido)-N-(2,6-difluoro-4-(2,2,2-trifluoroacetamido)phenyl)benzamide]
pest or weed control at 200 µg/mL [1, 5]: 80 to 100% | pest or weed control at 50 µg/cm2 [2, 6]: 50 to 100% | pest or weed control at 50 µg/cm2 [3, 7]: 50 to 100%

CC(=O)Nc1cc(F)c(NC(=O)c2cc(NC(=O)[C@H]3[C@H](c4ccc(Cl)c(Cl)c4)C3(Cl)Cl)ccc2Cl)c(F)c1 [F1262, N-(4-Acetamido-2,6-difluorophenyl)-2-chloro-5-((1R,3R)-2,2-dichloro-3-(3,4-dichlorophenyl)cyclopropane-1-carboxamido)benzamide]
pest or weed control at 200 µg/mL [1, 5]: 80 to 100% | pest or weed control at 50 µg/cm2 [2, 6]: 50 to 100% | pest or weed control at 50 µg/cm2 [3, 7]: 50 to 100%

CC(=O)Nc1ccc(F)c(NC(=O)c2cc(NC(=O)[C@H]3[C@H](c4cc(Cl)cc(Cl)c4)C3(Cl)Cl)cc(F)c2Cl)c1F [F1505, N-(3-acetamido-2,6-difluorophenyl)-2-chloro-5-((1R,3R)-2,2-dichloro-3-(3,5-dichlorophenyl)cyclopropane-1-carboxamido)-3-fluorobenzamide]
pest or weed control at 200 µg/mL [1, 10]: 0 to 80% | pest or weed control at 50 µg/cm2 [2, 11]: 50 to 100% | pest or weed control at 50 µg/cm2 [3, 12]: 50 to 100%

O=C(Nc1ccc(F)c(NC(=O)C(F)F)c1F)c1cc(NC(=O)[C@H]2[C@H](c3ccc(F)c(C(F)(F)F)c3)C2(Cl)Cl)ccc1F [F1530, 5-((1R,3R)-2,2-Dichloro-3-(4-fluoro-3-(trifluoromethyl)phenyl)cyclopropane-1-carboxamido)-N-(3-(2,2-difluoroacetamido)-2,4-difluorophenyl)-2-fluorobenzamide]
pest or weed control at 200 µg/mL [1, 10]: 0 to 80% | pest or weed control at 50 µg/cm2 [2, 11]: 50 to 100% | pest or weed control at 50 µg/cm2 [3, 12]: 50 to 100%

CC(=O)Nc1c(F)ccc(NC(=O)c2cc(NC(=O)[C@H]3[C@H](c4ccc(F)c(C(F)(F)F)c4)C3(Cl)Cl)ccc2F)c1F [F1531, N-(3-acetamido-2,4-difluorophenyl)-5-((1R,3R)-2,2-dichloro-3-(4-fluoro-3-(trifluoromethyl)phenyl)cyclopropane-1-carboxamido)-2-fluorobenzamide]
pest or weed control at 200 µg/mL [1, 10]: 0 to 80% | pest or weed control at 50 µg/cm2 [2, 11]: 50 to 100% | pest or weed control at 50 µg/cm2 [3, 12]: 50 to 100%

CC(=O)Nc1c(F)ccc(NC(=O)c2cc(NC(=O)[C@H]3[C@H](c4ccc(Cl)c(C(F)(F)F)c4)C3(Cl)Cl)ccc2Cl)c1F [F1658, N-(3-Acetamido-2,4-difluorophenyl)-2-chloro-5-((1R,3R)-2,2-dichloro-3-(4-chloro-3-(trifluoromethyl)phenyl)cyclopropane-1-carboxamido)benzamide]
pest or weed control at 200 µg/mL [1, 10]: 0 to 80% | pest or weed control at 50 µg/cm2 [2, 11]: 50 to 100% | pest or weed control at 50 µg/cm2 [3, 12]: 50 to 100%

CCOC(C)C(=O)Nc1c(F)ccc(NC(=O)c2cc(NC(=O)[C@H]3[C@H](c4ccc(F)c(Cl)c4)C3(Cl)Cl)ccc2Cl)c1F (stereo partly drawn) [F1698, 2-Chloro-5-((1R,3R)-2,2-dichloro-3-(3-chloro-4-fluorophenyl)cyclopropane-1-carboxamido)-N-(3-(2-ethoxypropanamido)-2,4-difluorophenyl)benzamide]
pest or weed control at 200 µg/mL [1, 10]: 0 to 80% | pest or weed control at 50 µg/cm2 [2, 11]: 50 to 100% | pest or weed control at 50 µg/cm2 [3, 12]: 50 to 100%

CN(NC(=O)c1cc(NC(=O)[C@H]2[C@H](c3ccc(F)c(Cl)c3)C2(Cl)Cl)ccc1Cl)c1ccccc1 [F2512, (1R,3R)-2,2-Dichloro-N-(4-chloro-3-(2-methyl-2-phenylhydrazine-1-carbonyl)phenyl)-3-(3-chloro-4-fluorophenyl)cyclopropane-1-carboxamide]
pest or weed control at 50 µg/cm2 [2, 8]: 50 to 100% | pest or weed control at 50 µg/cm2 [3, 9]: 50 to 100% | YFM rating [4]: A (80–100)

CN(NC(=O)c1cc(NC(=O)[C@H]2[C@H](c3ccc(Cl)c(Cl)c3)C2(Cl)Cl)ccc1Cl)c1ccccc1 [F2513, (1R,3R)-2,2-Dichloro-N-(4-chloro-3-(2-methyl-2-phenylhydrazine-1-carbonyl)phenyl)-3-(3,4-dichlorophenyl)cyclopropane-1-carboxamide]
pest or weed control at 50 µg/cm2 [2, 8]: 50 to 100% | pest or weed control at 50 µg/cm2 [3, 9]: 50 to 100% | YFM rating [4]: A (80–100)

CN(C(=O)c1cc(NC(=O)[C@H]2[C@H](c3ccc(Cl)c(Cl)c3)C2(Cl)Cl)ccc1Cl)N(C)c1ccccc1 [F2544, (1R,3R)-2,2-Dichloro-N-(4-chloro-3-(1,2-dimethyl-2-phenylhydrazine-1-carbonyl)phenyl)-3-(3,4-dichlorophenyl)cyclopropane-1-carboxamide]
pest or weed control at 50 µg/cm2 [2, 8]: 50 to 100% | pest or weed control at 50 µg/cm2 [3, 9]: 50 to 100% | YFM rating [4]: A (80–100)

O=C(NN=Cc1ccccc1)c1cc(NC(=O)C2C(c3cc(Cl)cc(Cl)c3)C2(Cl)Cl)ccc1Cl (stereo not drawn) [F3001, trans-N-(3-(2-Benzylidenehydrazine-1-carbonyl)-4-chiorophenyl)-2,2-dichloro-3-(3,5-dichlorophenyl)cyclopropane-1-carboxamide]
mortality at 50 µg/cm2 ([2]; 168 h, second instar larvae, 50 μg/cm^2 of test molecule on artificial diet, 25° C., five to seven days, average of eight wells, read-out: CL % Control (or Mortality) rating): 50 to 100% | pest or weed control at 50 µg/cm2 [2, 8]: 50 to 100% | mortality at 50 µg/cm2 ([3]; 168 h, second instar larvae, 50 μg/cm^2 of test molecule on artificial diet, 25° C., five to seven days, average of eight wells, read-out: BAW % Control (or Mortality) rating): 50 to 100% | pest or weed control at 50 µg/cm2 [3, 9]: 50 to 100% | YFM rating [4]: A (80–100) | YFM % Control (or Mortality) rating ([4]; about 1 day-old larvae, 4000 ppm master solution diluted with 90:10 water/acetone, 15 μL per well plus 220 μL larval mixture, 3 days, mortality): A (80–100)

From patent US20250228239A1, “MOLECULES HAVING PESTICIDAL UTILITY, AND INTERMEDIATES, COMPOSITIONS, AND PROCESSES, RELATED THERETO” (priority 2024, published 2025)
